Source: publication PMC3689634, “Self-assembled peptide amphiphiles function as multivalent binder with increased hemagglutinin affinity” (BMC Biotechnology, 2013)
Entries after “also recorded” stand apart in the source; their conditions may differ.

Columns and labels:
[1] = test system: HA receptor (hemagglutinin); settings: monovalent binding; cited from earlier work
[2] = test system: hemagglutinin H5 (HA1 aa 17–338, A/chicken/Jilin/9/2004 (H5N1)); format: binding, influenza A virus (H5N1); settings: pH 7.4

Compound | association constant, single SA molecule to a single HA receptor [1] | SPR binding signal to immobilised H5 (in words) [2]
CC(=O)N[C@H]1[C@H]([C@H](O)[C@H](O)CO)OC(O)(C(=O)O)C[C@@H]1O (some centres unmarked) [SA, sialic acid] | 10^3 M^-1 | 
C16-GSWGEW [negative control] |  | no binding affinity; also recorded: no quantitative measurable signal changes
